What was measured:
[1] = cited from earlier work; for AcH sequestration (trapping) in vivo: earlier studies (Nagasawa et al., J. Med. Chem, 1987)
rat hepatocytes = experiment: Test B: Sequestration of AcH in a hepatocyte system; type: cell-based; conditions: ethanol 20 mM; for lowering of the concentration of ethanol-derived AcH: compound 1.0 mM (1/20 molar concentration of ethanol), at two hrs, vs ethanol control without dipeptide, FIG. 4
Method: Test B: Sequestration of AcH in a hepatocyte system.
Hepatocytes from male Wistar rats were isolated and cultured under conditions previously described. On culture day two, ethanol and representative compounds of the invention were added to the culture medium to final concentrations of 20 mM and 1.0 mM, respectively. After 2 hours, 1.0 ml of medium was removed and added to a semicarbazide/sodium azide mixture and frozen until assayed for AcH by gas chromatography. AcH was measured before the addition of ethanol and representative compounds of the invention and 2 hours after incubation, and the values compared against ethanol control without dipeptides. In experiments with cyanamide (to inhibit AlDH), the cyanamide was added with the ethanol to give a final concentration in the culture medium of 50 mM. Results are depicted in FIGS. 4 and 5.

[2] = Test A: Sequestration of AcH in a cell-free system; type: biochemical; conditions: AcH 40 nmol, compound 400 nmol, 4.0 mM DTT, pH 7.4, 30 minute incubation at 37° C.; compared with 1 (positive control); FIG. 3
Method: Test A: Sequestration of AcH in a cell-free system. AcH (40 nmol) was incubated without (control) and with representative compounds of the invention (400 nmol) in a reaction mixture containing 4.0 mM dithiothreitol (DTT) and 40 mM potassium phosphate buffer (pH 7.4) in a total volume of 1.2 ml. The AcH remaining after a 30 minute incubation period at 37° C. was quantified by headspace GC analysis. DTT was included in the reaction mixture to maintain the thiols in their reduced state.

SMILES	melting point	AcH sequestering activity (AcH remaining by headspace GC) [2]	also measured
CC(C)(S)[C@@H](N)C(=O)O [Compound 1, D(−)-penicillamine]			AcH sequestration (trapping) in vivo [1]: best β-mercapto-α-amino acid sequestration agents for AcH in vivo
CC(C)(S)[C@@H](N)C(=O)NCC(=O)O.Cl [Compound 6a, D-Penicillamylglycine Hydrochloride]	67 to 71 °C		lowering of the concentration of ethanol-derived AcH (rat hepatocytes): 79%; reduction of ethanol-derived AcH concentration in presence of cyanamide (rat hepatocytes; compound 1.0 mM, cyanamide (AlDH inhibitor) 50 mM, 2 hours, vs control without dipeptide, FIG. 5): 33%
CSCC[C@H](N)C(=O)O [Methionine]		totally without AcH sequestering activity	
CC(C)(S)[C@@H](N)C(=O)NCCC(=O)O.Cl [Compound 6d, D-Penicillamyl-β-alanine Hydrochloride]	71 to 75 °C		lowering of the concentration of ethanol-derived AcH (rat hepatocytes): 84%
N[C@@H](CCS)C(=O)O [L-Homocysteine]		comparable to 1	AcH sequestration (trapping) in vivo [1]: not to be an effective AcH-trapping agent in vivo; metabolism in vivo ([1]; given as reason for lack of AcH trapping): metabolized too rapidly in vivo
N#CN [cyanamide]			increase in ethanol-derived AcH (rat hepatocytes; cyanamide in incubation medium (50 mM), control without dipeptide, FIG. 5): 45 fold
C[C@@H](O)[C@H](N)C(=O)O [threonine]		totally without AcH sequestering activity	
N[C@@H](CO)C(=O)O [serine]		totally without AcH sequestering activity	
CC(C)[C@H](NC(=O)[C@H](N)C(C)(C)S)C(=O)O.Cl	263 to 265.5 °C (dec.)		
CC(N)(CC(=O)[C@H](N)C(C)(C)S)C(=O)O.Cl (stereo partly drawn) [Compound 6c, D-Penicillamyl-α-aminoisobutyric acid hydrochloride]	145 to 148 °C		
NC(C(=O)O)C1(S)CCCC1 (racemic) [Compound 2, β,β-tetramethylene-DL-cysteine]			AcH sequestration (trapping) in vivo [1]: best β-mercapto-α-amino acid sequestration agents for AcH in vivo

Reference: patent US6686336B2, “N-terminal D(-)-penicillamine peptides as aldehyde sequestration agents” (Federal Government as represented by the Department of …, priority 2000, dated 2004)
